Measured values taken from the NIST ThermoML archive (doi:10.1021/je0505366).
± gives the expanded uncertainty stated by the source.

How the values were obtained:
[1] = refractive index (Na D-line) (dimensionless); conditions: 101.33 kPa, Liquid, Standard Abbe refractometry
[2] = Liquid; for mass density: 101.33 kPa; for vapor or sublimation pressure: 383.15 K, Ebulliometric method (Recirculating still)

Row | SMILES | refractive index ([1]; 293.15 K) | mass density ([2]; 293.15 K) [kg/m3] | vapor or sublimation pressure [2] [kPa] | further results
1 | Nc1ccccc1 [aniline] | 1.5862 ± 0.0007 | 1021.72 ± 0.18 | 9.21 ± 0.02 | 
2 | NC1CCCCC1 [cyclohexylamine] |  |  |  | refractive index ([1]; 288.15 K): 1.4624 ± 0.0007; mass density ([2]; 303.15 K): 858.2 ± 0.23 kg/m3
3 | CCCCCCCC [octane] |  |  | 64.09 ± 0.07 | refractive index ([1]; 298.15 K): 1.3946 ± 0.0007; mass density ([2]; 298.15 K): 698.49 ± 0.39 kg/m3
4 | Cc1ccccc1 [toluene] | 1.496 ± 0.0007 | 866.78 ± 0.23 |  | 
5 | O [water] | 1.3336 ± 0.0007 |  |  | 
